Consider 2 compounds from patent US11919854B2, “P2RX7 modulators in therapy” (Centre national de la recherche scientifique, priority 2018, dated 2024).

Structures are written as SMILES.

Data set [1] is described as follows: Stability in mouse liver microsomes. In kind it is in vitro ADME. The conditions noted are these: 1 μM; 0, 5, 10, 20, 30 and 40 min; mass spectrometry. The protocol: A. HEI-2328 and -3090 are stable molecules. Mouse liver microsomes from BD Gentest (ref 5345001) were incubated with HEI-2314, -2328, -2333 and -3090 at 1 μM for 0, 5, 10, 20, 30 and 40 min. The stability of the compounds was assayed by mass spectrometry.
Stability was studied in the mouse liver microsome system—and human, not shown—(FIG. 13A) and directly in vivo, for HEI3090 molecule (FIG. 13B). These experiments highlighted that HEI3090 is found at a concentration of maximum 2.5 μM in the plasma of mice injected with HEI3090 (ip, 1.5 mg/kg in 10% DMSO).
Background: Liver microsomes are vesicles of endoplasmic reticulum, rich in cytochrome P450 enzymes.

A further data set relates to B16F10 cells. The data set is described as follows: Syngeneic tumor mice model, B16F10 subcutaneous. In kind it is in vivo, C57BL/6 mice. The procedure: 5×10^5 B16F10 cells were injected sub cutaneously in the right flank of C57BL/6 mice. Mice received HEI2328 (n=8, ip, 2.3 mg/kg in 10% DMSO/PBS) daily or placebo (n=8, 10% DMSO/PBS). A. incidence of tumor appearance B. Tumor size (mm2) and C. tumor weight at sacrifice day (J12). *, p<0.05 (Mann-Whitney test).
5×10^5 LLC or 5×10^5 B16F10 cells were injected sub cutaneously in the right flank of C57BL6 mice. Mice received HEI3090 (ip, 2.5 mg/kg in 10% DMSO/PBS) daily or placebo (10% DMSO/PBS). A,C. incidence of tumor appearance B,D. Tumor size (mm2) and tumor weight at sacrifice day (J12). E. HEI-treated tumors are more immunogenic. Expression of CMH1 (H2K^b/D^b) and PD-L1 by LLC (black) and B16F10 (grey) tumors is shown in dot plots. Numbers highlighted the percentage of tumor cells positive for H2K^b/D^b and PD-L1. […] F. CD-45 positive infiltrates is increased in LLC and B16F10 tumors. *, p<0.05; **, p<0.01; ***, p<0.001 Mann-Whitney test.
5×10^5 LLC or 5×10^5 B16F10 cells were injected sub cutaneously in the right flank of C57BL6 mice. Mice received HEI3090 (ip, 2.5 mg/kg in 10% DMSO/PBS) daily or placebo (10% DMSO/PBS). A. The quantity of immunosuppressive cells is reduced. Dot plot of representative experiment. Numbers highlighted the percentage of M-MDSC and PMN-MDSC. […] B. The quantity of effector T cells ([…], NK, CD4+) is increased.
Therefore the inventors tested this compound on a classical tumor mice model. 5×10^5 B16F10 cells (in 200 μl PBS) were injected subcutaneously in the right flank of C57B16 mice that received a daily intraperitoneal injection of 2.3 mg/kg HEI2328 (in PBS/10% DMSO) or placebo (PBS/10% DMSO) for 12 days. […] However, this encouraging result was not statistically significant.
4.2. By killing tumoral cells, HEI3090 may represent a new anti-tumor treatment. To test this hypothesis, immunocompetent C57B16J mice were subcutaneously injected with 5×10^5 B16F10 or 5×10^5 LLC (Lewis Lung Cancer) cells and treated daily with HEI3090 (ip, 2.5 mg/kg in 10% DMSO/PBS) or placebo (10% DMSO/PBS). […] In both tumor mice models, tumors weight in the treated group was reduced by 10-fold in the B16F10 model (8 mg vs 81 mg) and by 4-folds in the LLC model (80 mg vs 295 mg). Of interest, tumors from the HEI3090 treated group are more immunogenic than tumors from the placebo group.

The nature of data set [2]: Solubility (qualitative statement). The class given is physicochemical.
Data set [3] relates to B16F10 melanoma cell line. As to the kind of experiment: Large pore opening (Topro3) in B16F10 melanoma cell line. In kind it is cell-based. The protocol:
Calcium channel activity (Fluo4AM probe) and large pore opening (Topro3 probe) were analysed by FACS. Unstimulated (NS) or cells treated with HEI2328 (50 μM) alone or with BzATP (500 μM) were analysed. (A) Representative dots plots. Numbers highlighted the percentage of positive cells.
A. Large pore opening. Dot plot of representative experiment. Numbers highlighted the percentage of positive cells. […] B. representative curve of XTT absorbance over the time. […] Mean±SEM are shown. ***, p<0.001; ****, p<0.0001 Mann-Whitney test.
4.1. […] To test this hypothesis, immunocompetent C57B6J (Envigo, Gannat France) mice were injected with the melanoma cell line B16-F10.
Of interest, potentiation of large pore opening correlated with increased-B16F10 cell death, as illustrated in FIG. 9. Cells treated during 1 h with BzATP and HEI3090 incorporated 3-fold more Topro3 than cells treated with BzATP only (FIG. 9A). Longer incubation increased cell death, since it was observed up to 80% of dead cells after 3 h treatment (FIG. 9B).

On to `O=C(NCc1ccc(Cl)cc1Cl)[C@@H]1CCC(=O)N1C(=O)Nc1ccc(Cl)c(Cl)c1` [HEI2328, (S)—N^2-(2,4-Dichlorobenzyl)-N^1-(3,4-dichlorophenyl)-5-oxopyrrolidine-1,2-dicarboxamide], for which, in data set [1], the “stability in mouse liver microsomes” value is given as “stable”. The tumor incidence entry with B16F10 cells (HEI2328 2.3 mg/kg ip daily, 12 days) is listed as “delayed”. For the same compound, in the data set on B16F10 cells (HEI2328 2.3 mg/kg ip daily, 12 days, not statistically significant), the “decrease of tumor growth” value worked out at 20%. Besides, the solubility entry in data set [2] is recorded as “poorly soluble”. Moreover, the “increase of large pore opening (Topro3 positive cells)” value in data set [3] (HEI2328 50 μM added on BzATP (500 μM) treated cells) is on record as “more than 6 fold”. For the same compound, in data set [3] (absence of BzATP, 50 μM), the “toxic effect of compound alone” value is “no toxic effect”.

In the case of `O=C(NCc1ccc(Cl)cc1Cl)[C@@H]1CCC(=O)N1C(=O)Nc1ccc(Cl)nc1` [HEI3090, (S)—N^1-(6-Chloropyridin-3-yl)-N^2-(2,4-dichlorobenzyl)-5-oxopyrrolidine-1,2-dicarboxamide], the “stability in mouse liver microsomes” value in data set [1] is recorded as “stable”. In addition, the “immunosuppressive cells (M-MDSC) in tumor infiltrates” value in the data set with B16F10 cells (HEI3090 ip 2.5 mg/kg daily) is listed as “less M-MDSC”. Moreover, the tumors weight in the data set with B16F10 cells (HEI3090 ip 2.5 mg/kg daily (placebo 81 mg)) came out at 8 mg. Also, the “reduction of tumors weight” value with B16F10 cells (HEI3090 ip 2.5 mg/kg daily, vs placebo) was 10 fold. Also, in data set [2], the solubility entry was “more soluble”. In data set [3] (1 h with BzATP and HEI3090), the “Topro3 incorporation vs cells treated with BzATP only” value came to 3 fold.
